Source: patent publication US20190105367A1, “ANTIMICROBIAL 4-OXOQUINOLIZINES” (Emergent Product Development Gaithersburg Inc., priority 2011, published 2019)
Values after ≈ are worked out from the molar mass of the structure shown. Where two headings read alike, the source gives them in different places.

Tests used:
[1] = test system: strains of A. baumannii and one strain of Acinetobacter sp.; experiment: MIC with sub-inhibitory concentrations (0.25x MIC) of polymyxin B, panel of Acinetobacter strains (Example 4); assay type: cell-based
A. baumannii ATCC 19606 [2] = experiment: MIC without and with sub-inhibitory polymyxin B (Example 4); assay type: cell-based, Acinetobacter baumannii; conditions: for MIC without PB/MIC + PB: A. baumannii ATCC 19606; for MIC: Acinetobacter baumannii
A. baumannii ATCC 19606 [3] = experiment: Preliminary MBC without and with sub-inhibitory polymyxin B (Example 4); assay type: cell-based, Acinetobacter baumannii; conditions: Acinetobacter baumannii
A. baumannii J2 [4] = experiment: MIC without and with sub-inhibitory polymyxin B (Example 4); assay type: cell-based, Acinetobacter baumannii; conditions: for MIC without PB/MIC + PB: A. baumannii J2; for MIC: Acinetobacter baumannii
A. baumannii J2 [5] = experiment: Preliminary MBC without and with sub-inhibitory polymyxin B (Example 4); assay type: cell-based, Acinetobacter baumannii; conditions: Acinetobacter baumannii, preliminary MBC
[6] = test system: Acinetobacter sp. (H064200250); experiment: MIC without and with sub-inhibitory polymyxin B (Example 4); assay type: cell-based; conditions: for MIC: Acinetobacter
[7] = test system: Acinetobacter sp. (H064200250); experiment: Preliminary MBC without and with sub-inhibitory polymyxin B (Example 4); assay type: cell-based; conditions: Acinetobacter, preliminary MBC
How it was run: (§1)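 After plating, cultures are held at 37° C for 18-20 hours; the endpoint is then scored by comparing colony growth against the positive control, with MBC defined as the lowest concentration showing roughly 90% reduction.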

A. baumannii A329 [8] = experiment: MIC without and with sub-inhibitory polymyxin B (Example 4); assay type: cell-based, Acinetobacter baumannii; conditions: A. baumannii A329; +0.06 μg/ml PB; 2nd experiment
A. baumannii A329 [9] = experiment: Preliminary MBC without and with sub-inhibitory polymyxin B (Example 4); assay type: cell-based, Acinetobacter baumannii; conditions: Acinetobacter baumannii, A329, A. baumannii A329, +0.06 μg/ml PB, 2nd experiment, read-out: MBC
A. baumannii A387 = experiment: MIC without and with sub-inhibitory polymyxin B (Example 4); assay type: cell-based, Acinetobacter baumannii; conditions: for MIC without PB/MIC + PB: A. baumannii A387
A. baumannii A390 [10] = experiment: as above; assay type: cell-based, Acinetobacter baumannii; conditions: +0.06 μg/ml PB, 2nd experiment
A. baumannii A14 [11] = experiment: Preliminary MBC without and with sub-inhibitory polymyxin B (Example 4); assay type: cell-based, Acinetobacter baumannii; conditions: 2nd experiment
How it was run: as §1

A. baumannii A390 [12] = experiment: as above; assay type: cell-based, Acinetobacter baumannii; conditions: Acinetobacter baumannii, A390, A. baumannii A390, +0.06 μg/ml PB, 2nd experiment, read-out: MBC
How it was run: as §1

A. baumannii A473 [13] = experiment: as above; assay type: cell-based, Acinetobacter baumannii; conditions: Acinetobacter baumannii, A473, A. baumannii A473, +0.06 μg/ml PB, 2nd experiment, read-out: MBC
How it was run: as §1

A. baumannii NCTC 13301 [14] = experiment: as above; assay type: cell-based, Acinetobacter baumannii; conditions: Acinetobacter baumannii
How it was run: as §1

A. baumannii A472 = experiment: as above; assay type: cell-based, Acinetobacter baumannii; conditions: Acinetobacter baumannii, preliminary MBC
A. baumannii A473 [15] = experiment: MIC without and with sub-inhibitory polymyxin B (Example 4); assay type: cell-based, Acinetobacter baumannii; conditions: +0.06 μg/ml PB, 2nd experiment
A. baumannii A489 [16] = experiment: as above; assay type: cell-based, Acinetobacter baumannii; conditions: for MIC without PB/MIC + PB: A. baumannii A489; for MIC: Acinetobacter baumannii
A. baumannii A489 [17] = experiment: Preliminary MBC without and with sub-inhibitory polymyxin B (Example 4); assay type: cell-based, Acinetobacter baumannii; conditions: Acinetobacter baumannii, preliminary MBC
A. baumannii NCTC 13301 [18] = experiment: MIC without and with sub-inhibitory polymyxin B (Example 4); assay type: cell-based, Acinetobacter baumannii
A. baumannii NCTC 13301 [19] = experiment: as above; assay type: cell-based, Acinetobacter baumannii; conditions: +[…] PB, 2nd experiment
A. baumannii A14 [20] = experiment: as above; assay type: cell-based, Acinetobacter baumannii; conditions: 1st experiment
A. baumannii A14 [21] = experiment: as above; assay type: cell-based, Acinetobacter baumannii; conditions: 2nd experiment
A. baumannii A14 [22] = experiment: Preliminary MBC without and with sub-inhibitory polymyxin B (Example 4); assay type: cell-based, Acinetobacter baumannii; conditions: A. baumannii A14, preliminary MBC, 1st experiment
[23] = ratio, PB 0.06 μg/ml, 1st experiment
[24] = A. baumannii A14, +0.06 μg/ml PB

Cc1c(-c2cc(Cl)c(N)c(Cl)c2)ccn2c(=O)c(C(=O)O)cc(C3CC3)c12 [Compound 3, 8-(3,5-dichloro-4-amino-phenyl)-1-cyclopropyl-9-methyl-4-oxo-quinolizine-3-carboxylic acid]
MIC range with PB (0.25x MIC) Oct. 1, 2008 n = 8 ([1]; 1st experiment, […] polymyxin B, ATCC 19606, A329, A390 and A473 not taken): ≤0.03 to 1 µg/mL
MIC range with PB (0.25x MIC) Oct. 14, 2008 n = 11 ([1]; 2nd experiment, 0.06 μg/ml polymyxin B, all strains except the ATCC strain): ≤0.03 to 0.5 µg/mL
MIC without PB/MIC + PB (A. baumannii ATCC 19606 [2]; +0.06 μg/ml PB, 2nd experiment): ≥8
MIC without PB/MIC + PB (A. baumannii ATCC 19606 [2]; [23]): ≥8
MIC (A. baumannii ATCC 19606 [2]; ATCC19606, A. baumannii ATCC 19606, +0.06 μg/ml PB, 2nd experiment, read-out: MIC): ≤ 0.03 µg/mL
MIC (A. baumannii ATCC 19606 [2]; ATCC19606, read-out: MIC +0.06 μg/ml PB, A. baumannii ATCC 19606, +0.06 μg/ml polymyxin B, 1st experiment): ≤ 0.03 µg/mL
MBC (A. baumannii ATCC 19606 [3]; ATCC19606, A. baumannii ATCC 19606, +0.06 μg/ml PB, 2nd experiment, read-out: MBC): ≤ 0.03 µg/mL
MBC (A. baumannii ATCC 19606 [3]; ATCC19606, read-out: MBC +0.06 μg/ml PB, A. baumannii ATCC 19606, +0.06 μg/ml polymyxin B, 1st experiment): ≤ 0.03 µg/mL
MIC without PB/MIC + PB (A. baumannii J2 [4]; +[…] PB, 2nd experiment): ≥1024
MIC without PB/MIC + PB (A. baumannii J2 [4]; ratio, PB […], 1st experiment): 64
MIC (A. baumannii J2 [4]; J2, A. baumannii J2, +[…] PB, 2nd experiment, read-out: MIC): ≤ 0.03 µg/mL
MIC (A. baumannii J2 [4]; J2, read-out: MIC +[…] PB, A. baumannii J2, +[…] polymyxin B, 1st experiment): 0.125 µg/mL (≈ 0.31 µM)
MBC (A. baumannii J2 [5]; J2, A. baumannii J2, +[…] PB, 2nd experiment, read-out: MBC): ≤ 0.03 µg/mL
MBC (A. baumannii J2 [5]; J2, read-out: MBC +[…] PB, A. baumannii J2, +[…] polymyxin B, 1st experiment): 0.125 µg/mL (≈ 0.31 µM)
MIC without PB/MIC + PB ([6]; Acinetobacter spp. H064200250 (OXA51), +[…] PB, 2nd experiment): 256
MIC without PB/MIC + PB ([6]; Acinetobacter spp. H064200250, ratio, PB […], 1st experiment): 16
MIC ([6]; Acinetobacter spp. H064200250 (OXA51), +[…] PB, 2nd experiment, read-out: MIC): 0.06 µg/mL (≈ 0.149 µM)
MIC ([6]; read-out: MIC +[…] PB, Acinetobacter spp. H064200250, +[…] polymyxin B, 1st experiment): 0.5 µg/mL (≈ 1.24 µM)
MBC ([7]; Acinetobacter spp. H064200250 (OXA51), +[…] PB, 2nd experiment, read-out: MBC): 0.06 µg/mL (≈ 0.149 µM)
MBC ([7]; read-out: MBC +[…] PB, Acinetobacter spp. H064200250, +[…] polymyxin B, 1st experiment): 0.5 µg/mL (≈ 1.24 µM)
MIC without PB/MIC + PB (A. baumannii A329 [8]): 32
MBC (A. baumannii A329 [9]): 0.25 µg/mL (≈ 0.62 µM)
MIC without PB/MIC + PB (A. baumannii A387; +0.06 μg/ml PB, 2nd experiment): ≥32
MIC without PB/MIC + PB (A. baumannii A387; [23]): ≥32
MIC (A. baumannii A387; Acinetobacter baumannii, A387, read-out: MIC +0.06 μg/ml PB, A. baumannii A387, +0.06 μg/ml polymyxin B, 1st experiment): ≤ 0.03 µg/mL
MIC without PB/MIC + PB (A. baumannii A390 [10]; A. baumannii A390): ≥256
MIC (A. baumannii A390 [10]; Acinetobacter baumannii, A390, A. baumannii A390, read-out: MIC): 0.125 µg/mL (≈ 0.31 µM)
MBC (A. baumannii A14 [11]; [24]): 0.125 µg/mL (≈ 0.31 µM)
MBC (A. baumannii A14 [11]; Acinetobacter baumannii, A14, A. baumannii A14, without PB, read-out: MBC): > 32 µg/mL
MBC (A. baumannii A390 [12]): 0.125 µg/mL (≈ 0.31 µM)
MBC (A. baumannii A473 [13]): 0.06 µg/mL (≈ 0.149 µM)
MBC (A. baumannii NCTC 13301 [14]; NCTC13301, A. baumannii NCTC 13301, +[…] PB, preliminary MBC, 2nd experiment, read-out: MBC): ≤ 0.03 µg/mL
MBC (A. baumannii NCTC 13301 [14]; NCTC13301, read-out: MBC +[…] PB): 0.5 µg/mL (≈ 1.24 µM)
MBC (A. baumannii A472; A472, A. baumannii A472, +[…] PB, 2nd experiment, read-out: MBC): ≤ 0.03 µg/mL
MBC (A. baumannii A472; A472, read-out: MBC +[…] PB, A. baumannii A472, +[…] polymyxin B, 1st experiment): 0.25 µg/mL (≈ 0.62 µM)
MIC without PB/MIC + PB (A. baumannii A473 [15]; A. baumannii A473): ≥256
MIC (A. baumannii A473 [15]; Acinetobacter baumannii, A473, A. baumannii A473, read-out: MIC): ≤ 0.03 µg/mL
MIC without PB/MIC + PB (A. baumannii A489 [16]; +[…] PB, 2nd experiment): ≥128
MIC without PB/MIC + PB (A. baumannii A489 [16]; ratio, PB […], 1st experiment): 64
MIC (A. baumannii A489 [16]; A489, A. baumannii A489, +[…] PB, 2nd experiment, read-out: MIC): ≤ 0.03 µg/mL
MIC (A. baumannii A489 [16]; A489, read-out: MIC +[…] PB, A. baumannii A489, +[…] polymyxin B, 1st experiment): 0.06 µg/mL (≈ 0.149 µM)
MBC (A. baumannii A489 [17]; A489, A. baumannii A489, +[…] PB, 2nd experiment, read-out: MBC): ≤ 0.03 µg/mL
MBC (A. baumannii A489 [17]; A489, read-out: MBC +[…] PB, A. baumannii A489, +[…] polymyxin B, 1st experiment): 0.06 µg/mL (≈ 0.149 µM)
MIC without PB/MIC + PB (A. baumannii NCTC 13301 [18]; A. baumannii NCTC 13301, ratio, PB […], 1st experiment): ≥64
MIC (A. baumannii NCTC 13301 [18]; Acinetobacter baumannii, NCTC13301, read-out: MIC +[…] PB): 0.5 µg/mL (≈ 1.24 µM)
MIC without PB/MIC + PB (A. baumannii NCTC 13301 [19]; A. baumannii NCTC 13301): ≥1024
MIC (A. baumannii NCTC 13301 [19]; Acinetobacter baumannii, NCTC13301, A. baumannii NCTC 13301, read-out: MIC): ≤ 0.03 µg/mL
MIC +0.06 μg/ml PB (A. baumannii A14 [20]; +0.06 μg/ml polymyxin B): 1 µg/mL
MIC (A. baumannii A14 [20]; Acinetobacter baumannii, 24 h, without polymyxin B, read-out: MIC without PB): > 32 µg/mL
MIC without PB/MIC + PB (A. baumannii A14 [20]; ratio, PB 0.06 μg/ml): ≥32
MIC (A. baumannii A14 [21]; [24]): 0.125 µg/mL (≈ 0.31 µM)
MIC without PB/MIC + PB (A. baumannii A14 [21]; [24]): ≥256
MIC (A. baumannii A14 [21]; Acinetobacter baumannii, A14, A. baumannii A14, without PB, read-out: MIC): > 32 µg/mL
MBC +0.06 μg/ml PB (A. baumannii A14 [22]; +0.06 μg/ml polymyxin B): 1 µg/mL
MBC (A. baumannii A14 [22]; Acinetobacter baumannii, without polymyxin B, read-out: MBC without PB): > 32 µg/mL
